Consider 15 molecules from ChEMBL document CHEMBL4765442, “Anti-Giardia Drug Discovery: Current Status and Gut Feelings” (J Med Chem, 2020).

Converted amounts (≈) assume the structure as drawn.

Data set [1] relates to Giardia intestinalis. Kind of data set: Antigiardial activity against metronidazole-resistant Giardia duodenalis 106-2ID10. It is filed as functional.
Data set [2] concerns Giardia intestinalis. Kind of data set: Antigiardial activity against metronidazole-resistant Giardia duodenalis WB-M3. It is filed as functional.
The subject of data set [3] is Giardia intestinalis. Kind of data set: Antigiardial activity against metronidazole-resistant Giardia duodenalis 713-M3. It is filed as functional.
For data set [4], the system named is Giardia intestinalis. The experiment in a line: Antigiardial activity against metronidazole-resistant Giardia duodenalis BRIS/83/HEPU/106-2ID10 incubated for 3 days followed by compound wash-out and measured after 4 days. It is filed as functional. The note with it: time 3 day.
Data set [5] relates to Giardia intestinalis. Kind of data set: Antigiardial activity against Giardia intestinalis incubated for 48 hrs. In kind it is functional, organism-based. The note with it: Giardia duodenalis.
Data set [6] relates to Giardia intestinalis. Kind of data set: Antigiardial activity against Giardia duodenalis Ec2 incubated for 3 days by fluorescence method. It is filed as functional, organism-based. The note with it: Ec2, 72 h.
The subject of data set [7] is Giardia intestinalis. Kind of data set: Antigiardial activity against Giardia intestinalis IMSS:0696:1 incubated for 48 hrs followed by wash out by hemocytometric counting method. In kind it is functional, organism-based. The note with it: Giardia duodenalis, IMSS:0696:1, 48 h.
Data set [8] has as its system Giardia intestinalis. Kind of data set: Antigiardial activity against Giardia duodenalis Ah1 incubated for 3 days by fluorescence method. In kind it is functional, organism-based. The note with it: Ah1, 72 h.
A short description of data set [9]: Half-life of the compound. In kind it is physicochemical.
Data set [10] deals with Giardia intestinalis. Kind of data set: Antigiardial activity against Giardia duodenalis G1 incubated for 3 days by fluorescence method. In kind it is functional, organism-based. Particulars: G1, 72 h.
Data set [11] relates to Giardia intestinalis. Kind of data set: Antigiardial activity against Giardia lamblia WB (ATCC 30957) incubated for 3 days by [3H]thymidine incorporation based assay. It is filed as functional, organism-based. The note with it: Giardia duodenalis.
In data set [12] the test system is Giardia intestinalis. Kind of data set: Antigiardial activity against Giardia duodenalis Ac1 incubated for 3 days by fluorescence method. In kind it is functional, organism-based. The note with it: Ac1, 72 h.
In data set [13] the test system is Giardia intestinalis. Kind of data set: Antigiardial activity against Giardia duodenalis Ac2 incubated for 3 days by fluorescence method. In kind it is functional, organism-based. Particulars: Ac2, 72 h.
The test system of data set [14] is Giardia intestinalis. Kind of data set: Antigiardial activity against Giardia duodenalis BRIS/83/HEPU/106 incubated for 3 days followed by compound wash-out and measured after 4 days. In kind it is functional. Particulars: time 3 day.
The subject of data set [15] is Giardia intestinalis. Kind of data set: Antigiardial activity against Giardia duodenalis WB (ATCC 30957) incubated for 3 days by fluorescence method. In kind it is functional, organism-based. Particulars: WB ATCC 30957, 72 h.
The test system of data set [16] is Giardia intestinalis. The experiment in a line: Antigiardial activity against Giardia duodenalis GS/M-83-H7 (ATCC 50581) incubated for 3 days by fluorescence method. It is filed as functional, organism-based. Particulars: 72 h.
Data set [17] concerns Giardia intestinalis. Kind of data set: Antigiardial activity against metronidazole-resistant Giardia duodenalis WB1B-M3 incubated for 3 days followed by compound wash-out and measured after 4 days. The note with it: time 3 day. In kind it is functional.
Data set [18] has as its system Giardia intestinalis. Kind of data set: Growth inhibition of Giardia duodenalis isolate 14-03/F7 measured after 24 hrs by resazurin based assay. In kind it is functional, organism-based. The note with it: isolate 14-03/F7, 24 h. (In general: The colour change of resazurin is a common sign of viable cells or microbes.)
Data set [19] has as its system Giardia intestinalis. Kind of data set: Antigiardial activity against Giardia duodenalis BRIS/91/HEPU/1279 incubated for 3 days followed by compound wash-out and measured after 4 days. It is filed as functional. Particulars: time 3 day.
In data set [20] the test system is Giardia intestinalis. Kind of data set: Antigiardial activity against Giardia duodenalis Ec1 incubated for 3 days by fluorescence method. The note with it: Ec1, 72 h. It is filed as functional, organism-based.
Data set [21] deals with Giardia intestinalis. The experiment in a line: Antigiardial activity against Giardia duodenalis Ah2 incubated for 3 days by fluorescence method. It is filed as functional, organism-based. The note with it: Ah2, 72 h.
Data set [22] relates to Giardia intestinalis. The experiment in a line: Antigiardial activity against Giardia lamblia WB incubated for 48 hrs by microscopic method. It is filed as functional, organism-based. The note with it: Giardia duodenalis.
Data set [23] concerns Giardia intestinalis. Kind of data set: Antigiardial activity against Giardia lamblia P1 incubated for 48 hrs by haemocytometric counting method. It is filed as functional, organism-based. Particulars: Giardia duodenalis, P1, 48 h.
Data set [24] deals with Giardia intestinalis. Kind of data set: Antigiardial activity against Giardia lamblia H/7 incubated for 48 hrs by microscopic method. It is filed as functional, organism-based. Particulars: Giardia duodenalis, H/7, 48 h.
The test system of data set [25] is Giardia intestinalis. Kind of data set: Antigiardial activity against Giardia intestinalis WB ATCC 30957 incubated for 72 hrs by hemocytometric counting method. It is filed as functional, organism-based. The note with it: Giardia duodenalis, WB ATCC 30957, 72 h.
Data set [26] can be described thus: Selectivity ratio of CC50 for human HeLa cells incubated for 2 days by alamarBlue reagent to IC50 for Giardia lamblia BRIS/87/HEPU/713 measured after 48 hrs by BacTiter-Glo cell viability assay. In kind it is toxicity. Particulars: read-out: Ratio CC50/IC50.
In data set [27] the test system is Giardia intestinalis. The experiment in a line: Antimicrobial activity against Giardia lamblia BRIS/87/HEPU/713 trophozoites measured after 48 hrs by BacTiter-Glo cell viability assay. It is filed as functional, organism-based. Particulars: Giardia duodenalis, BRIS/87/HEPU/713, 48 h.
Data set [28] has as its system Giardia intestinalis. The experiment in a line: Antigiardial activity against Giardia duodenalis WBC6 trophozoites incubated for 72 hrs under anaerobic condition by resazurin-dye based fluorimetry. It is filed as functional, organism-based. The note with it: WBC6, 72 h.
The subject of data set [29] is Giardia intestinalis. Kind of data set: Antigiardial activity against Giardia duodenalis WBC6 trophozoites incubated for 48 hrs under microaerophilic condition by methylene blue colorimetric assay. In kind it is functional, organism-based. Particulars: WBC6, 48 h.
A short description of data set [30]: Selectivity ratio of CC50 for human HeLa cells incubated for 2 days by alamarBlue reagent to IC50 for Giardia lamblia BRIS/83/HEPU/106 measured after 48 hrs by BacTiter-Glo cell viability assay. Particulars: read-out: Ratio CC50/IC50. In kind it is toxicity.
Data set [31] concerns Giardia intestinalis. Kind of data set: Antimicrobial activity against Giardia lamblia BRIS/83/HEPU/106 trophozoites measured after 2 days by BacTiter-Glo cell viability assay. It is filed as functional, organism-based. Particulars: Giardia duodenalis, BRIS/83/HEPU/106, 48 h.
Data set [32] is described as follows: Selectivity ratio of EC50 for Giardia lamblia WB-M2 trophozoites to EC50 for Giardia lamblia BRIS/87/HEPU/713 trophozoites. In kind it is functional.
Data set [33] has as its system Giardia intestinalis. Kind of data set: Antimicrobial activity against Giardia lamblia WB-M2 trophozoites measured after 2 days by BacTiter-Glo cell viability assay. In kind it is functional, organism-based. Particulars: Giardia duodenalis, WB-M2, 48 h.
Data set [34] is described as follows: Selectivity ratio of EC50 for Giardia lamblia 713-M3 trophozoites to EC50 for Giardia lamblia BRIS/87/HEPU/713 trophozoites. It is filed as functional.
The nature of data set [35]: Selectivity ratio of CC50 for human HeLa cells incubated for 2 days by alamarBlue reagent to IC50 for Giardia lamblia 713M3 measured after 48 hrs by BacTiter-Glo cell viability assay. Particulars: read-out: Ratio CC50/IC50. It is filed as toxicity.
Data set [36] deals with Giardia intestinalis. The experiment in a line: Antimicrobial activity against Giardia lamblia 713M3 trophozoites measured after 2 days by BacTiter-Glo cell viability assay. In kind it is functional, organism-based. The note with it: Giardia duodenalis, 713M3, 48 h.
The nature of data set [37]: Selectivity ratio of CC50 for human HeLa cells incubated for 2 days by alamarBlue reagent to IC50 for Giardia lamblia WB-M2 measured after 48 hrs by BacTiter-Glo cell viability assay. It is filed as toxicity. Particulars: time 2 day, read-out: Ratio CC50/IC50.

One may read the MIC as the least concentration at which growth counts as inhibited. Low readings indicate inhibition by little substance, high ones a need for much substance. Consider `Cn1c(-c2ccc3c(c2)OCO3)cnc1/C=C/c1ncc([N+](=O)[O-])n1C`, for which the MIC in the data set on Giardia intestinalis [1] was 1 µM (≈ 0.353 µg/mL); in the data set on Giardia intestinalis [2], 1 µM (≈ 0.353 µg/mL); in the data set on Giardia intestinalis [3], 0.5 µM (≈ 0.177 µg/mL).
For orientation: IC50 means the midpoint of a concentration-inhibition curve. A low value points to greater potency in that assay. In general, half-life refers to the time in which the quantity being followed falls by half. A low value points to fast loss. Regarding `Cc1ncc([N+](=O)[O-])n1CCO` [METRONIDAZOLE], the MLC with Giardia intestinalis [4] was more than 500 µM; in the data set with Giardia intestinalis [14], 100 µM (≈ 17.1 µg/mL); in the data set with Giardia intestinalis [17] it was more than 500 µM; in the data set on Giardia intestinalis [19], 50 µM (≈ 8.56 µg/mL). In addition, the IC50 in the data set on Giardia intestinalis [5] worked out at 1000 nM; in the data set with Giardia intestinalis [6], 500 nM; with Giardia intestinalis [7], 4400 nM; with Giardia intestinalis [8], 500 nM; in the data set on Giardia intestinalis [10] it was 500 nM; in the data set with Giardia intestinalis [11], 500 nM. The IC50 in the data set with Giardia intestinalis [12] is 500 nM; with Giardia intestinalis [13] it was 500 nM; with Giardia intestinalis [15], 500 nM; in the data set with Giardia intestinalis [16], 500 nM; in the data set on Giardia intestinalis [18], 6200 nM; in the data set on Giardia intestinalis [20], 500 nM. Besides, the IC50 in the data set with Giardia intestinalis [21] was found to be 500 nM. This molecule also gave a half-life in data set [9] of 6 h.
In the data set on Giardia intestinalis [7], `Cc1ncc([N+](=O)[O-])n1CCOC(=O)Nc1ccc(Cl)cc1` registered a half-inhibitory concentration (IC50) of 500 nM.
Still for that read-out and setting: under `Cc1ncc([N+](=O)[O-])n1CC(C)OC(=O)Nc1ccc(F)cc1` (stereo not given) stands 500 nM.
Turning to `CCCSc1ccc2nc(NC(=O)OC)[nH]c2c1` [ALBENDAZOLE], the IC50 with Giardia intestinalis [6], in the data set on Giardia intestinalis [8], in the data set on Giardia intestinalis [10], in the data set on Giardia intestinalis [12], in the data set on Giardia intestinalis [13] and with Giardia intestinalis [15] was 55 nM each time. In addition, the concentration for half-maximal inhibition (IC50) in the data set on Giardia intestinalis [16], in the data set on Giardia intestinalis [20] and in the data set on Giardia intestinalis [21] was 55 nM in each case. In data set [9], this molecule had a half-life of 8 h.
For the molecule `CN1CC/C(=C\c2ncc([N+](=O)[O-])n2C)C1=O`, the MLC in the data set with Giardia intestinalis [4] is 5 µM (≈ 1.18 µg/mL); in the data set with Giardia intestinalis [14], 1 µM (≈ 0.236 µg/mL); in the data set on Giardia intestinalis [17], 10 µM (≈ 2.36 µg/mL); in the data set on Giardia intestinalis [19], 1 µM (≈ 0.236 µg/mL).
Take `COC(=O)Nc1nc2ccc(C(=O)c3ccccc3)cc2[nH]1` [MEBENDAZOLE]: the IC50 in the data set on Giardia intestinalis [22], in the data set on Giardia intestinalis [23] and in the data set with Giardia intestinalis [24] was 60 nM throughout. In data set [9], the half-life is 2.5 h.
`Cc1ncc([N+](=O)[O-])n1CCOC(=O)NC1CCCCC1` gave an IC50 in the data set with Giardia intestinalis [7] of 500 nM.
In the data set with Giardia intestinalis [25], `Cc1ncc([N+](=O)[O-])n1CCN1CCN(c2ccnc3cc(Cl)ccc23)CC1` registered a concentration for half-maximal inhibition (IC50) of 970 nM.
Regarding `CC(=O)c1ccc(-c2cn(CCn3c([N+](=O)[O-])cnc3/C=C/c3ccco3)nn2)cc1`, the selectivity ratio at 48 h in data set [26] is more than 16800. For the same molecule, 3 nM corresponded to half-maximal inhibition in the data set with Giardia intestinalis [27] (IC50).
As for `O=[N+]([O-])c1ccc(SCCCCCCO)c2nonc12`, the IC50 with Giardia intestinalis [28] came to 600 nM; in the data set with Giardia intestinalis [29] it was 300 nM.
Turning to `CN(Cc1ccccc1)Cc1cn(CCCCCC(=O)Nc2ncc([N+](=O)[O-])s2)nn1`, the selectivity ratio at 48 h in data set [30] was more than 8; in [26], more than 500; in [35], more than 8; in data set [37], more than 8. For the same molecule, the IC50 in the data set with Giardia intestinalis [31] amounted to 100 nM; in the data set on Giardia intestinalis [33], 6500 nM; in the data set on Giardia intestinalis [36], 100 nM; with Giardia intestinalis [27] it was 100 nM. Moreover, the Ratio EC50 in data set [32] was found to be 65; in data set [34] it was 20.
In the data set with Giardia intestinalis [7], `Cc1ncc([N+](=O)[O-])n1CC(C)OC(=O)Nc1ccc([N+](=O)[O-])cc1` (stereo not given) returned an IC50 of 500 nM.
The same measure, in the same setting: under `Cc1ncc([N+](=O)[O-])n1CC(C)O` (stereo not given) [SECNIDAZOLE] stands 4100 nM.
In the data set on Giardia intestinalis [25], `O=C(/C=C/c1ccc([N+](=O)[O-])o1)N1CCN(c2ccnc3cc(Cl)ccc23)CC1` showed an IC50 of 145000 nM.
